{"source": "patent US11364280B2", "about": "“Method for blocking stress-induced tumor progression” (Taipei Veterans General Hospital, priority 2018, dated 2022)", "key": {"[1]": {"test_system": "MSI1 translocation into the cytosol in 05 MG cells", "assay": "MSI1 subcellular translocation (immunostaining, fractionation immunoblot)", "format": "cell-based, human", "conditions": "cisplatin 30 μM, 24 hours", "method": "Magnifying power: 200× (top) and 600× (bottom). Quantitation of cells expressing cytoplasmic or nuclear MSI1 is shown in the bar graph on the right. FIG. 1B 05 MG cells pre-treated with or without nuclear export inhibitor leptomycinB (LMB) (10 ng/mL, 2 h) under normoxia or hypoxia conditions for 24 hr were subjected to anti-MSI1 (green) immunostaining and DAPI (blue) nuclear counterstaining. Images were acquired from Carl Zeiss confocal microscope system. The intensity of green fluorescence in nuclear and cytosol was quantified and shown as relative percentage in the graph at the right. […] FIG. 1D provides a schematic showing the mutation sites in the NLS (orange) and NES (red) of human MSI1. All constructs were sub-cloned into p-3×Flag-Myc-CMV expression vector. […] Images were acquired from Carl Zeiss confocal microscope system, and the quantification of fluorescent intensity in the nuclear and cytosolic compartments was shown as relative percentage in the graph at the left. […] Tumor size was measure with a caliper at the indicated time points. […] The tumor size was measured with a caliper at the indicated time points. […]\nThe ratio of MSI1 expression in each group was presented in the graph. […] Hypoxia-induced apoptosis was withdrawn by the over-expression of wild-type MSI1 but not in mutant MSI1 groups determined by annexin V staining, MTT assay, and colony forming assay. […]"}, "[2]": {"test_system": "05 MG/MSI1-wt xenografts", "assay": "Cisplatin treatment of subcutaneous xenografts overexpressing MSI1-wt", "format": "in vivo, mice", "conditions": "477.437 mm^3 without cisplatin", "method": "Magnifying power: 200× (top) and 600× (bottom). Quantitation of cells expressing cytoplasmic or nuclear MSI1 is shown in the bar graph on the right. FIG. 1B 05 MG cells pre-treated with or without nuclear export inhibitor leptomycinB (LMB) (10 ng/mL, 2 h) under normoxia or hypoxia conditions for 24 hr were subjected to anti-MSI1 (green) immunostaining and DAPI (blue) nuclear counterstaining. Images were acquired from Carl Zeiss confocal microscope system. The intensity of green fluorescence in nuclear and cytosol was quantified and shown as relative percentage in the graph at the right. […] FIG. 1D provides a schematic showing the mutation sites in the NLS (orange) and NES (red) of human MSI1. All constructs were sub-cloned into p-3×Flag-Myc-CMV expression vector. […] Images were acquired from Carl Zeiss confocal microscope system, and the quantification of fluorescent intensity in the nuclear and cytosolic compartments was shown as relative percentage in the graph at the left. […] Tumor size was measure with a caliper at the indicated time points. […] Images were acquired from Carl Zeiss confocal microscope system. […] The tumor size was measured with a caliper at the indicated time points. […]\nAll procedures involving animals were performed in accordance with the institutional animal welfare guidelines of Taipei Veterans General Hospital. […] Tumor size was measured with calipers^38. […]"}, "[3]": {"target": "MSI1/AGO2 interaction (Homo sapiens, UniProt Q9UKV8)", "sequence (Q9UKV8 whole entry)": "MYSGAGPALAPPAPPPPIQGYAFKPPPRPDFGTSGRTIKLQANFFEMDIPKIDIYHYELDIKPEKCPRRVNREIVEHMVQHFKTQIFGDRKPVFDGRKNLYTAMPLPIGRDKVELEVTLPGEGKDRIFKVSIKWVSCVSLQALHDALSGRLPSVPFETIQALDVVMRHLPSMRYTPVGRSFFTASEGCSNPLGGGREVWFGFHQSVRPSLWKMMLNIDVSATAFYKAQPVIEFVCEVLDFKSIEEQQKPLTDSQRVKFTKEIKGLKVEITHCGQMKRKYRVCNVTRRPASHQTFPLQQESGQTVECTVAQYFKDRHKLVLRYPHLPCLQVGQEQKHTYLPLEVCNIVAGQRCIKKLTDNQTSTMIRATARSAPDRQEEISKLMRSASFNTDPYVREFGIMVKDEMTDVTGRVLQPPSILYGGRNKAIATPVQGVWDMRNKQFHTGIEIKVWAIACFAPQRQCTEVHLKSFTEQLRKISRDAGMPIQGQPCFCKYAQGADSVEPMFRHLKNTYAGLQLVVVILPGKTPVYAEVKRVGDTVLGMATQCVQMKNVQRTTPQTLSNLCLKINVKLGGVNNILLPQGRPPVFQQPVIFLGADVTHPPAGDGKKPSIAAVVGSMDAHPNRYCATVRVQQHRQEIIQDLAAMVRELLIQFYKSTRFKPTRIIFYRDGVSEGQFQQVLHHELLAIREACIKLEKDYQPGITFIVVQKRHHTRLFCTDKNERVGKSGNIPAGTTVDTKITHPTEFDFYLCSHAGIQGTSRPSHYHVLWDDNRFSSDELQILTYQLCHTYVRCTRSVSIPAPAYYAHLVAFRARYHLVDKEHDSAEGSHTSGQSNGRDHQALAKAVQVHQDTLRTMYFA", "assay": "Split Gaussia luciferase reconstitution reporter assay", "format": "cell-based", "parameters": "expressed in transfected cells; lysates used for the in vitro read-out", "conditions": "in the presence of cisplatin, IVIS", "method": "The relative orientation of peptide-binding site and AGO2 pocket was depicted. […] The recombinant AGO2 protein was immobilized on CM5 chip and incubated with a serial dilution (from 625 to 10000 nM) of the two peptides, respectively. The association and dissociation between TAT-11, TAT-26 and immobilized AGO2 were tested by SPR (top). The association rate constant (Ka), dissociation rate constant (Kd), and equilibrium dissociation constant (KD) were calculated and presented in the chart (bottom).\nFIG. 14A provides schematic presentation of the constructs of full-length, C-terminus, and N-terminus of MSI1 as well as wild-type AGO2 for purifying recombinant proteins. FIG. 14B provides pull-down assay with recombinant MSI1 and AGO2 proteins showing that the C-terminus of MSI1 is essential for the direct MSI1/AGO2 interaction. […] FIG. 14D provides the schematic illustration of the split luciferase reconstitution imaging system to real-time monitor the interaction between MSI1 and AGO2.\nTo use Gaussia luciferase (Gluc) for detecting protein-protein interaction, we split Gaussia luciferase into NGluc (N-terminal Gluc, 106 a.a.) and CGluc (C-terminal Glue. 79 a.a.)^53,54. The two fragments were amplified by polymerase chain reaction (PCR) and subjected to construct fusion protein with MSI1 and AGO2 by the pcDNA 3.1 and pCMV backbone, respectively. Each fusion protein contains a flexible linker (GGGGS)2 between the protein and polypeptides of split luciferase^55,56. Stable cell lines were obtained by stable transfection of both fusion protein expressive plasmids in 05 MG GBM cell line with Hygromycin B (Sigma Aldrich Co., St. Louis, […]., USA) and G418 sulfate (Merck Co., Berlin, Germany). […] The bioluminescent signals were acquired by Wallac 1420 Victor^2 Microplate Reader (Perkin Elmer, Waltham. Mass., USA) equipped with auto-dispenser to avoid rapid decay of GLuc. […] The region of interests (ROI) was automatically chosen by the Living Image 4.2 software and quantified as photon flux in a certain area per second (photons/s/cm^2)."}}, "data": [{"smiles": "N.N.[Cl][Pt][Cl]", "note": "[cisplatin]", "values": [{"measurement": "translocation of MSI1 in 05 MG cells", "setting": "[1]", "value": "induced"}, {"measurement": "tumor volume at day 22", "setting": "[2]", "value": 774.365, "unit": "mm^3"}, {"measurement": "bioluminescent signal of split Gaussia luciferase", "setting": "[3]", "value": "increase of the bioluminescent signal"}]}]}
